Laboratory results as given in US9193728B2, “Fused tetracyclic pyrido [4,3-B] indole and pyrido [3,4-B] indole derivatives and methods of use” (Medivation Technologies, Inc., priority 2010, dated 2015).

How the values were obtained:
[1] = biological target: T1, human recombinant histamine H2 receptor (Homo sapiens, UniProt P25021); test: Histamine H2 radioligand binding ([125I]Aminopotentidine); conditions: compound at 1 μM; 0.1 nM [125I]Aminopotentidine; read-out: Histamine Binding (1 μM) H2, percentage inhibition
T1 construct: expressed in transfected cells; host or cells: CHO-K1
T1 sequence (P25021 whole entry): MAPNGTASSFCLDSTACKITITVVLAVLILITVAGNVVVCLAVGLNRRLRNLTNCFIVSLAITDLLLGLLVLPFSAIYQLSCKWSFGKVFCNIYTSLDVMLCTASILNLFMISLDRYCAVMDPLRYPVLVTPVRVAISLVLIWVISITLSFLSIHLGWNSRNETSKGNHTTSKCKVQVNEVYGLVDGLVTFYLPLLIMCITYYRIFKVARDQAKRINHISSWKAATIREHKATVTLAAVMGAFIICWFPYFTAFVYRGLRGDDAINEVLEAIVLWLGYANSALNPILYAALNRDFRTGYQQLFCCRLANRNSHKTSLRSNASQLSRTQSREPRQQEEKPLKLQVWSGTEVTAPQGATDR
Procedure: To evaluate in radioligand binding assays the activity of compounds of the invention, human recombinant histamine H2 receptor expressed in Chinese hamster ovary (CHO) K1 cells (Ruat, M., Proc. Natl. Acad. Sci. USA. 87(5):1658, 1990) in a 50 mM Phosphate buffer, pH 7.4 was used. Compounds of the invention were incubated with 0.1 nM [^125I]Aminopotentidine for 120 min. at 25° C. Non-specific binding was estimated in the presence of 3 μM Tiotidine. Receptor proteins were filtered and washed, the filters were then counted to determine [^125I]Aminopotentidine specifically bound. Compounds were screened at 1 μM or lower, using 1% DMSO as vehicle. Biochemical assay results are presented as the percent inhibition of specific binding in Table 2.

[2] = biological target: T2, human recombinant serotonin (5-Hydroxytryptamine) 5-HT2A receptor (Homo sapiens, UniProt P28223); test: Serotonin 5-HT2A radioligand binding ([3H]Ketanserin); conditions: for inhibition at 0.1 µM / Serotonin (0.1 μM) 5-HT2A, percentage inhibition of ligand binding: compound at 0.1 μM; for inhibition at 0.1 µM: read-out: Serotonin (0.1 μM) 5-HT2A, percentage inhibition of ligand binding
T2 construct: expressed in transfected cells; host or cells: CHO-K1
T2 sequence (P28223 whole entry): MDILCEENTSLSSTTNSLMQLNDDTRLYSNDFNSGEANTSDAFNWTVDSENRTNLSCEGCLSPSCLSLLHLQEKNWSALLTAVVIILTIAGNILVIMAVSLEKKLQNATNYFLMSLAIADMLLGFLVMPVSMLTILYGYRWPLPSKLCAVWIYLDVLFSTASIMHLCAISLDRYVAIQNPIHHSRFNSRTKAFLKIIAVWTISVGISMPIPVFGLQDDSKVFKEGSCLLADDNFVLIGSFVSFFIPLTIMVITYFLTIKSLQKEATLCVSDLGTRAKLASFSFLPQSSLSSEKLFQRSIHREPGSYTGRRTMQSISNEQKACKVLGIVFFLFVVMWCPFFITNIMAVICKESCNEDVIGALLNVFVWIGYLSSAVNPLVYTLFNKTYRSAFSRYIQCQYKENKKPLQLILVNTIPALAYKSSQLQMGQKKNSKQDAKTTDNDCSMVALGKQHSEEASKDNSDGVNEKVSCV
Procedure: To evaluate in radioligand binding assays the activity of compounds of the invention, human recombinant serotonin (5-Hydroxytryptamine) 5-HT2A receptor expressed in Chinese hamster ovary (CHO)-K1 cells (Bonhaus, D. et al, Br. J. Pharmacol. 115:622, 1995; Saucier, C. et al, J. Neurochem. 68:1998, 1997) in a 50 mM Tris-HCl buffer, pH 7.4, was used. Compounds of the invention were incubated with 0.5 nM [^3H]Ketanserin for 60 min. at 25° C. Non-specific binding was estimated in the presence of 1 μM Mianserin. Receptor proteins were filtered and washed, the filters were then counted to determine [^3H]Ketanserin specifically bound. Compounds were screened at 1 μM or lower, using 1% DMSO as vehicle. Biochemical assay results are presented as the percent inhibition of specific binding in Table 4.

Compound | inhibition at 0.1 µM [2] [%] | further results
Cc1cc2c3c(c1)c1c(n3CC(c3ccc(F)cc3)C2)CCN(C)C1 (stereo not drawn) [Compound 3] | 69 | inhibition at 1 µM [1]: 75%; inhibition at 1 µM ([2]; compound at 1 μM, read-out: Serotonin (1 μM) 5-HT2A, percentage inhibition of ligand binding): 94%
Cc1cc2c3c(c1)c1c(n3CC(C)(c3ccc(C)nc3)OC(C)C2)CCN(C)C1 (stereo not drawn) [Compound 160] | -4 | 
Cc1cc2c3c(c1)c1c(n3CC(C)(c3ccc(C)nc3)OC2C)CCN(C)C1 (stereo not drawn) [Compound 161] |  | Serotonin (0.1 μM) 5-HT2A, percentage inhibition of ligand binding [2]: −2%
Cc1cc2c3c(c1)c1c(n3C[C@@](C)(c3ccncc3)O[C@H]2C)CCN(C)C1 [Compound 162] | 7 | 
Cc1cc2c3c(c1)c1c(n3C[C@](C)(c3ccncc3)O[C@H]2C)CCN(C)C1 [Compound 163] | 3 | 
Cc1cc2c3c(c1)c1c(n3CC(C)(c3ccc(C)nc3)OC2C)CCN(C)C1 (stereo not drawn) [Compound 164] |  | Serotonin (0.1 μM) 5-HT2A, percentage inhibition of ligand binding [2]: 0%
Cc1cc2c3c(c1)c1c(n3CC(C)(c3ccncc3)OC(C)C2)CCN(C)C1 (stereo not drawn) [Compound 165] | 12 | 
